Results on one compound are retold here after ChEMBL document CHEMBL5678795 (Eur J Pharmacol, 1999).

The species entered for series [1] is Homo sapiens. The experiment in a line: Displacement of [3H] PK 11195 from central-type benzodiazepine (unknown origin) at 10 uM incubated for 15 mins by radiometric based scintillation counter assay relative to control.
Series [2] deals with Cannabinoid receptor 1 (Homo sapiens) (UniProt P21554). The experiment in a line: Displacement of [3H]CP 55940 from human recombinant cannabinoid CB1 receptor at 10 uM incubated for 30 mins by radiometric based scintillation counter assay relative to control.
For series [3], the target named is 5-hydroxytryptamine receptor 1B (Homo sapiens) (UniProt P28222). The experiment in a line: Displacement of [3H]GR125743 from human recombinant 5-Hydroxytryptamine 1B at 10 uM incubated for 60 mins by radiometric based scintillation counter assay relative to control.
The species named for another series is Rattus norvegicus. The experiment in a line: Displacement of [3H]batrachotoxinin from rat brain Voltage-gated Na+ channel (site 2) at 10 uM incubated for 60 mins by radiometric based scintillation counter assay relative to control. In kind it is tissue-based.
Series [4] concerns the target D(1A) dopamine receptor (Homo sapiens) (UniProt P21728). The experiment in a line: Displacement of [3H]SCH 23390 from human recombinant dopamine D1 receptor at 10 uM incubated for 60 mins by radiometric based scintillation counter assay relative to control.
Series [5] addresses T1, Endothelin receptor type B (Homo sapiens, UniProt P24530).
T1 sequence (P24530 whole entry): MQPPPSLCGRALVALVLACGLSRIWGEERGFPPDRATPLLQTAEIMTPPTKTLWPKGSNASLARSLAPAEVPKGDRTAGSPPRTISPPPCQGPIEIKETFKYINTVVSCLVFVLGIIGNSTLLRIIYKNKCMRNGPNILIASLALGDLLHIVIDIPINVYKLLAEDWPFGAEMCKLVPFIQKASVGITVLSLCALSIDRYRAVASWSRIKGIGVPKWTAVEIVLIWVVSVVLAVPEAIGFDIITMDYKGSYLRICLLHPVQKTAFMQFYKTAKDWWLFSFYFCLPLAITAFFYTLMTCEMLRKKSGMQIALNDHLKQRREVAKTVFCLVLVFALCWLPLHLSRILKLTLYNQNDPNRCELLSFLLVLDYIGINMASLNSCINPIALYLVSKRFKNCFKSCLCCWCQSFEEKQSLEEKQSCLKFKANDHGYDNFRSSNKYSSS
Description: Displacement of [125I]endhothelin-3 from human ETB receptor stably expressed in CHO cells Membrane at 25 degC incubated for 3 hrs by radioligand competition binding assay. It is filed as cell membranes.

Series [6] deals with D(1B) dopamine receptor (Homo sapiens) (UniProt P21918). Description: Displacement of [3H]SCH 23390 from human recombinant dopamine D5 receptor at 10 uM incubated for 60 mins by radiometric based scintillation counter assay relative to control.
For series [7], the species on record is Homo sapiens. Description: Inhibition of Voltage-gated Na+ channel (site 1) (unknown origin) at 10 uM by radioligand binding assay relative to control.
In series [8] the target is T2, Endothelin-1 receptor (Rattus norvegicus) (UniProt P26684).
T2 sequence (whole entry): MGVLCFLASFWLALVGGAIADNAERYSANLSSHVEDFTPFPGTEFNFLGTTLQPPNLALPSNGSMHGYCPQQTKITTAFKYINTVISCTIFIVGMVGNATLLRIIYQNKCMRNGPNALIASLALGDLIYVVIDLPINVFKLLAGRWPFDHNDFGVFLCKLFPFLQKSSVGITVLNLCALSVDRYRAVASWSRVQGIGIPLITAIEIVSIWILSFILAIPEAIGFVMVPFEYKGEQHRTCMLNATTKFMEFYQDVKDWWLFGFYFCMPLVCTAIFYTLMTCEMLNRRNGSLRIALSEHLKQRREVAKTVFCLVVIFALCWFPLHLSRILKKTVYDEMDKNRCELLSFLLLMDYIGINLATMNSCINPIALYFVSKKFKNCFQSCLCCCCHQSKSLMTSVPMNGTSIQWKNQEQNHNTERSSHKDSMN
The experiment in a line: In vivo antagonist activity to ETA receptor in endothelin-1 induced Sprague-Dawley rat assessed as reduction of vasopressor response at 30 mg/kg, po administered for 4 to 8 hrs. It is filed as functional, organism-based. Particulars: time 4-8 hrs.

Series [9] in a line: Half life in Sprague-Dawley rat at 5 mg/kg, iv administered for 12 hrs by HPLC analysis. As to conditions: in vivo. In kind it is ADME, organism-based.
A short description of series [10]: Cmax in Sprague-Dawley rat at 10 mg/kg, po administered for 12 hrs by HPLC analysis. It is filed as ADME, organism-based. As to conditions: in vivo.
Series [11] deals with Melatonin receptor type 1A (Homo sapiens) (UniProt P48039). Description: Displacement of [125I]2-iodomelatonin from human recombinant melatonin ML1 receptor at 10 uM incubated for 240 mins by radiometric based scintillation counter assay relative to control.
The target of series [12] is Sigma non-opioid intracellular receptor 1 (Homo sapiens) (UniProt Q99720). Description: Displacement of [3H]DTG from human sigma-Receptor at 10 uM incubated for 120 mins by radiometric based scintillation counter assay relative to control.
Series [13] deals with Kappa-type opioid receptor (Homo sapiens) (UniProt P41145). Description: Displacement of [3H]U-69593 from human kappa-Opioid receptor at 10 uM incubated for 60 mins by radiometric based scintillation counter assay relative to control.
Series [14] can be described thus: Oral bioavailability in cynomolgus monkey at 5 mg/kg administered for 12 hrs by HPLC analysis. It is filed as ADME, organism-based, Macaca fascicularis. As to conditions: in vivo.
The target in series [15] is T2, Endothelin-1 receptor (Rattus norvegicus). Description: Antagonist activity at ETA receptor in rat MMQ cells assessed as inhibition of phosphatidylinositol hydrolysis in presence of myo-[3H] inositol by anion exchange chromatography. It is filed as functional, cell-based.
The target of series [16] is T3, Endothelin-1 receptor (Homo sapiens) (UniProt P25101).
T3 sequence (whole entry): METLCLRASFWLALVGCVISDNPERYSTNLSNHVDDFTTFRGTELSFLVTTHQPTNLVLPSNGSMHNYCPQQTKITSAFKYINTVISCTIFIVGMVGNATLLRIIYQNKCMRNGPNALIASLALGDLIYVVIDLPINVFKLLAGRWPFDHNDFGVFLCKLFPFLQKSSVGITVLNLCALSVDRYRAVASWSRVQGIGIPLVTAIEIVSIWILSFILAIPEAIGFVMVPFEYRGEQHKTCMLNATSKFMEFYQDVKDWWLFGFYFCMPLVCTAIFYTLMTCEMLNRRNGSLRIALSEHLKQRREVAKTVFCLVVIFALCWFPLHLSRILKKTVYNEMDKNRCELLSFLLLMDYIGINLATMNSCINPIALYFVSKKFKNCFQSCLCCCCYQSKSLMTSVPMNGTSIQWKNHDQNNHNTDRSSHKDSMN
Description: Displacement of [125I]endhothelin-1 from human ETA receptor stably expressed in CHO cells Membrane assessed as maximum binding at 25 degC at 0.25 to 1.0 nM incubated for 4 hrs by saturation binding assay. In kind it is cell membranes. As to conditions: dose 0.25-1 nM.

Series [17] concerns the target B2 bradykinin receptor (Homo sapiens) (UniProt P30411). The experiment in a line: Displacement of [3H]bradykinin from human recombinant Bradykinin B2 receptor at 10 uM incubated for 60 mins by radiometric based scintillation counter assay relative to control.
For series [18], the species on record is Homo sapiens. Description: Displacement of [3H]Dofetilide from human recombinant voltage-dependent K+ channel at 10 uM incubated for 60 mins by radiometric based scintillation counter assay relative to control.
The species named for the next series is Mus musculus. Description: Displacement of [125I]PDGF BB from mouse platlet-derived growth factor receptor at 10 uM incubated for 180 mins by radiometric based scintillation counter assay relative to control.

Active and inactive are the calls of the source. The rule behind the calls is not given here.

Chain of Kappa-type opioid receptor (Homo sapiens) (P41145 whole entry): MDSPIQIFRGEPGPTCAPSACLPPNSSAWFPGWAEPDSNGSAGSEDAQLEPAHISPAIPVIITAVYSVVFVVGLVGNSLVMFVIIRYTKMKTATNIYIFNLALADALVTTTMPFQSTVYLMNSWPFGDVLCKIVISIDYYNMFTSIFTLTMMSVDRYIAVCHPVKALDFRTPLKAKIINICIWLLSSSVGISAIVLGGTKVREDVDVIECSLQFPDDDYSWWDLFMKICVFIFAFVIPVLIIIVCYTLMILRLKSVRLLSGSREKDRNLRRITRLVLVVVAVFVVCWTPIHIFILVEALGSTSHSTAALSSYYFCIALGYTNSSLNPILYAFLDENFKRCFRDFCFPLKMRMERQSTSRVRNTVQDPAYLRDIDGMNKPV
Chain of Cannabinoid receptor 1 (Homo sapiens) (P21554 whole entry): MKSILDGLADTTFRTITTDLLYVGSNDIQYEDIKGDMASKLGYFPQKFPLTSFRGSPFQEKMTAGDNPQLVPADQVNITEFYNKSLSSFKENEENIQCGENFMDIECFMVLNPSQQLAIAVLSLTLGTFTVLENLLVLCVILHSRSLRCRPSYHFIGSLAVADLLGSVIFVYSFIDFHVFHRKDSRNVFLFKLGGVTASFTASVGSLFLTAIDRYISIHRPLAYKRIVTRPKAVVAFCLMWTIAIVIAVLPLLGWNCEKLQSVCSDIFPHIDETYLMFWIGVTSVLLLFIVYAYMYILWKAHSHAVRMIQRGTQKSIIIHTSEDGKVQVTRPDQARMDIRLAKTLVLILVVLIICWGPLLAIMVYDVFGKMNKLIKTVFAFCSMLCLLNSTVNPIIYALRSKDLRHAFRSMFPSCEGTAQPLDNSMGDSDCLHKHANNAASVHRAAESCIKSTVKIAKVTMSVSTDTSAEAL
Chain of Sigma non-opioid intracellular receptor 1 (Homo sapiens) (Q99720 whole entry): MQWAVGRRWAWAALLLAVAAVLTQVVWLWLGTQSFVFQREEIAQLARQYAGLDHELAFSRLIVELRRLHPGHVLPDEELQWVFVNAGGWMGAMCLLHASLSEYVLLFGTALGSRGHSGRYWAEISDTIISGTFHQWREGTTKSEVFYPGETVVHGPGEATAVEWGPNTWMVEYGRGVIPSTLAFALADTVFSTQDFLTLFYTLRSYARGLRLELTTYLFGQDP
Chain of Melatonin receptor type 1A (Homo sapiens) (P48039 whole entry): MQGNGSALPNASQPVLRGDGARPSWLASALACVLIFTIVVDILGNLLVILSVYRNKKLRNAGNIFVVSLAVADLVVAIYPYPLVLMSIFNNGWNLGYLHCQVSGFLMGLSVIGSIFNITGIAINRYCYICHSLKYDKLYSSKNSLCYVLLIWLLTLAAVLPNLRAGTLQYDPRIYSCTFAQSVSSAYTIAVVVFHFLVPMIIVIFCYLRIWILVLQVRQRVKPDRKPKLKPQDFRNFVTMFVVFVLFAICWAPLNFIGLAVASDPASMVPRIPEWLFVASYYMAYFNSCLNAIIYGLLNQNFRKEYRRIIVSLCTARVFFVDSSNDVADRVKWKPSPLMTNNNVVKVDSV
Chain of D(1A) dopamine receptor (Homo sapiens) (P21728 whole entry): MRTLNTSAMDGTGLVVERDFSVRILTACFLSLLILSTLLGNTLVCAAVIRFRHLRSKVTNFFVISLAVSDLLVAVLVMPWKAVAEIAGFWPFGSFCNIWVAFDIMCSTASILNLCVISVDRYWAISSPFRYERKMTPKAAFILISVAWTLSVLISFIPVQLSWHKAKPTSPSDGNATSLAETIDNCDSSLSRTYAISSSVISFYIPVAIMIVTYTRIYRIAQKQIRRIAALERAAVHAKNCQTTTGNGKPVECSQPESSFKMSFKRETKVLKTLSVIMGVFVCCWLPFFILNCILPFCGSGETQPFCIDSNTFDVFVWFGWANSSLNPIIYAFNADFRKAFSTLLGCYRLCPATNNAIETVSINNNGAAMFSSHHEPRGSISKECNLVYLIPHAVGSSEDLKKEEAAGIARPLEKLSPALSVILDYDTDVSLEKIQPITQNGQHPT
Chain of D(1B) dopamine receptor (Homo sapiens) (P21918 whole entry): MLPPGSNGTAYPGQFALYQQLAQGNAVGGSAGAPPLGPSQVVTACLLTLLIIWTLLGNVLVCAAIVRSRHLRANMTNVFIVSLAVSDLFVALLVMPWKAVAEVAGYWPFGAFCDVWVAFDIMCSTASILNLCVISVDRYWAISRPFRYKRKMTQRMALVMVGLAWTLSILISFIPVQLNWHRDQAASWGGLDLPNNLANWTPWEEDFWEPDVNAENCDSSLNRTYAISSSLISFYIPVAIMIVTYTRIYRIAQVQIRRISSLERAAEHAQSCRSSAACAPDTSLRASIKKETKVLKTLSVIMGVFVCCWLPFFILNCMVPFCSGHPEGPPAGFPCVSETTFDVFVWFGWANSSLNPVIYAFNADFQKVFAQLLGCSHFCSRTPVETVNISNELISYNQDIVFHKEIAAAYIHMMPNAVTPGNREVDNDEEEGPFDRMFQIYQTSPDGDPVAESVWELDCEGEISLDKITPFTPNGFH
Chain of 5-hydroxytryptamine receptor 1B (Homo sapiens) (P28222 whole entry): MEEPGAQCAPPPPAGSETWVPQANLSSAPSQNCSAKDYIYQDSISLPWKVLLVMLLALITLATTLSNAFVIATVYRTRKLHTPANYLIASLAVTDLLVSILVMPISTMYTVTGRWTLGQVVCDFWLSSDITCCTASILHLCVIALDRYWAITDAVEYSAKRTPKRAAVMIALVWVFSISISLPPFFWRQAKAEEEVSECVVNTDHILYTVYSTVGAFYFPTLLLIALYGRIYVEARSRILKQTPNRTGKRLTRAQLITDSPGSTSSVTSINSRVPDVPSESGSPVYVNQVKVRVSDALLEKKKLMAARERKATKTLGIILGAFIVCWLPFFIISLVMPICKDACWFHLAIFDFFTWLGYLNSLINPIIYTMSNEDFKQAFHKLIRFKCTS
Chain of B2 bradykinin receptor (Homo sapiens) (P30411 whole entry): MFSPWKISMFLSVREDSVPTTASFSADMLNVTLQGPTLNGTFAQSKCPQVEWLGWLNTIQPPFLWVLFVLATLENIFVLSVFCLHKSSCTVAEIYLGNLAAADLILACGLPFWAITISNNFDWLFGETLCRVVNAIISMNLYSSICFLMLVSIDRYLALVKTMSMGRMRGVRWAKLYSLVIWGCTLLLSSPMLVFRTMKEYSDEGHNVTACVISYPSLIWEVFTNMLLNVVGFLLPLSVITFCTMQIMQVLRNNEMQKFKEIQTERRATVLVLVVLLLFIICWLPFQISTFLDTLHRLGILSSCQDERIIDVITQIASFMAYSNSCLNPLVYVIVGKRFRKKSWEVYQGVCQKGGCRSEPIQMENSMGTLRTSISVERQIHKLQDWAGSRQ

Consider `CCCCN(CCCC)C(=O)CN1[C@H](c2cc(OC)c3c(c2)OCO3)C[C@@H](C(=O)O)[C@@H]1CC(C)(C)CCC`, for which the inhibition in the series filed under Homo sapiens [1] is below 10%; in series [2], below 10%; in [3], below 10%; in the series listed under Rattus norvegicus, below 10%; in series [4] it was 14%; in series [6] it was below 10%. Further, the inhibition in the series filed under Homo sapiens [7] is 22%; in [11], 12%; in series [12] it was below 10%; in series [13], 28%; in series [17], below 10%; in the series listed under Homo sapiens [18], below 10%. In the series listed under Mus musculus, this compound displayed an inhibition below 10%. This compound showed an IC50 in [5] of 15.4 µM. In series [8], the result was Active. The compound also showed a half-life in [9] of 1.6 h. Further, the highest level in series [10] (Cmax) was 1690 ng/mL. This compound also registered a bioavailability in [14] of 18.1%. Besides, the outcome in series [15] was inactive. Besides, the Bmax result in series [16] was “inactive”.
